Results on seven compounds are retold here after patent EP0640088B1, “NOVEL TRICYCLIC THIAZOLO AND THIAZINO DERIVATIVES AND ANTI-VIRAL MEDICAMENTS CONTAINING THEM” (BOEHRINGER MANNHEIM GMBH, priority 1992, dated 1993).

In general, IC50 refers to the midpoint of a concentration-inhibition curve.

Read-outs that look alike come from different tables or passages of the source.

This assay deals with T1, RT aus HIV-1 (Human immunodeficiency virus type 1 group M subtype B, UniProt P04585).
T1 construct: die gereinigte RT aus HIV-1; made in house; host or cells: E. coli
Briefly: Inhibition of reverse transcriptase (RT), screening test system measuring [3H]-thymidine-5'-triphosphate incorporation. Type of assay: biochemical. From the text: Hemmung der Reversen Transkriptase (RT)
Das Screeningtestsystem beinhaltet die gereinigte RT aus HIV-1, die durch gentechnologische Methoden in E. coli exprimiert wurde, sowie die Komponenten des Initiationskomplexes, wie die in-vitro-Transkripte des HIV-LTR's mit der benachbarten Primer Binding Site als Template und einem zur Primer Binding Site komplementären 18mer Oligonukleotid als Primer. Gemessen wurde der [^3H]-Thymidin-5'-triphosphat-Einbau durch Auszählen im β-Counter.

Compound `CN1C(=O)N2CCSC2(c2ccccc2)c2ccccc21` (stereo not shown) [Beispiel 6, 6-Methyl-10b-phenyl-2,3,6,10b-tetrahydro-5H-thiazolo [3,2-c]quinazolin-5-on] showed an IC50 of 6200 nM.

The compound `Cc1cccc(C23SCCN2C(=O)Nc2ccccc23)c1` (stereo not shown) [Beispiel 5 b, 10b-(3-Methylphenyl)-2,3,6,10b-tetrahydro-5H-thiazolo[3,2-c]quinazolin-5-on] registered an IC50 of 30 nM.

In turn, `O=C1Nc2ccccc2C2(c3ccccc3)SCCCN12` (stereo not shown) [Beispiel 2, 11b-Phenyl-3,4,7,11b-tetrahydro-2H,6H-[1,3]thiazino[3,2-c]quinazolin-6-on] yielded an IC50 of 510 nM.

`O=C1Nc2ccccc2C2(c3ccccc3)SCCN12` (stereo not shown) [Beispiel 1 b, 10b-Phenyl-2,3,6,10-tetrahydro-5H-thiazolo[3,2-c]quinazolin-5-on]: the IC50 was 470 nM.

The compound `Cc1cccc(C23SCCN2C(=O)Nc2ccccc23)n1` (stereo not shown) [Beispiel 5 f, 10b-(6-Methyl-2-pyridyl)-2,3,6,10b-tetrahydro-5H-thiazolo[3,2-c]quinazolin-5-on] registered an IC50 of 200 nM.

Regarding `S=C1Nc2ccccc2C2(c3ccccc3)SCCN12` (stereo not shown) [Beispiel 7, 10b-Phenyl-2,3,6,10b-tetrahydro-5H-thiazolo[3,2-c]quinazolin-5-thion], 30 nM corresponded to half-maximal inhibition (IC50).

Take `O=C1Nc2ccc(Cl)cc2C2(c3ccccc3)SCCN12` (stereo not shown) [Beispiel 4, 9-Chlor-10b-phenyl-2,3,6,10b-tetrahydro-5H-thiazolo[3,2-c]quinazolin-5-on]: the IC50 (purified recombinant RT from HIV-1 expressed in E. coli, HIV-LTR in-vitro transcript as template, 18mer oligonucleotide primer, [3H]-TTP incorporation, β-counter, read-out: Hemmung der HIV-RT IC50) was 30 nM.
